Earlier results in patent publication US8679534B2, “HMG-CoA reductase inhibitor extended release formulation” (Andrx Labs, LLC, priority 1997, dated 2014).

System: blood serum cholesterol level
Settings: background statement

CC[C@H](C)C(=O)O[C@H]1C[C@@H](C)C=C2C=C[C@H](C)[C@H](CC[C@@H]3C[C@@H](O)CC(=O)O3)[C@H]21 [Lovastatin, lovastatin]
lowering of the blood serum cholesterol level: 30-40%
